Assay [1] deals with staphylococci (strain not given). The assay is described as follows: Checkerboard analysis of PlySs2/CF-301 with AMPs, antimicrobial proteins and albumins in heat-inactivated human serum. Format: cell-based, S. aureus. Conditions: in combination with PlySs2/CF-301.
Assay [2] relates to S. aureus (strain not given). The assay is described as follows: MIC analysis of various lysins, chimeric lysins and antibiotics in MHB and human serum. The format is cell-based. Conditions: Table 2; for MIC: Staphylococcus aureus; for Fold decrease in MIC: human serum vs MHB.
Assay [3] concerns MRSA strain MW2. The assay is described as follows: Rabbit infective endocarditis model. The format is in vivo, New Zealand White Rabbits. Conditions: rabbit IE model; daptomycin 4 mg/kg IV once daily for 4 days.
The subject of assay [4] is MRSA strain MW2. The assay is described as follows: Checkerboard assay in human serum and MHB. The format is cell-based, S. aureus. Conditions: in combination with PlySs2 (CF-301).
The test system of assay [5] is S. aureus (strain not given). The assay can be described thus: MIC analysis of various lysins, chimeric lysins and antibiotics in MHB and human serum. Conditions: for Minimal inhibitory concentration, MHB / Fold decrease in MIC / Minimal inhibitory concentration, Human serum: Table 14 (Example 2); for Fold decrease in MIC: human serum vs MHB; for MIC: Staphylococcus aureus. The format is cell-based. As to the method: To further evaluate the binding domain relevance to the serum component effect, various chimerics were constructed by replacing or swapping out one binding domain for another. Chimeric lysins having the Sal1 CHAP catalytic domain with ClyS binding domain, PlySs2 (CF-301) binding domain, or lysostaphin binding domain were assayed for MIC using MHB versus human serum. the results are depicted below in TABLE 14.

Assay [6] relates to methicillin-resistant S. aureus (MRSA) strain MW2. The assay is described as follows: Time-kill assay in blood matrices and MHB. Format: cell-based. Particulars: strain MW2; human blood matrices vs MHB.
In a further assay the test system is S. aureus strain MW2. The assay can be described thus: Synergy time-kill assay. Format: cell-based. Particulars: human serum.

Values after ≈ are worked out from the molar mass of the structure shown. Read-outs that look alike come from different tables or passages of the source. No end group written: not given here.

As for “Serum albumin (Rabbit, from serum): rabbit serum albumin”, the ΣFICavg in assay [1] is recorded as at most 0.1.

Regarding HNP-1: Human AMP [reference compound], the ΣFICavg in assay [1] is listed as 1.

LL-37 [reference compound]: the ΣFICavg in assay [1] was determined as 1.

As to Histatin-5 [reference compound], the ΣFICavg in assay [1] is on record as at least 1.16.

“Lysozyme (Hen egg-white): lysozyme, hen egg”: in assay [1], the ΣFICavg was at most 0.563.

With “β-Defensin 3: Human AMP (hBD-3) (GIINTLQKYYCRVRGGRCAVLSCLPKEEQIGKCSTRGRKCCRRKK; ends and bridges not checked; cysteine pairing not given here; UniProt P81534 23-67, looked up) [reference compound]”, the ΣFICavg in assay [1] is listed as 1.

On to `CCCCCCCCCC(=O)N[C@@H](Cc1c[nH]c2ccccc12)C(=O)N[C@H](CC(N)=O)C(=O)N[C@@H](CC(=O)O)C(=O)N[C@@H]1C(=O)NCC(=O)N[C@@H](CCCN)C(=O)N[C@@H](CC(=O)O)C(=O)N[C@H](C)C(=O)N[C@@H](CC(=O)O)C(=O)NCC(=O)N[C@H](CO)C(=O)N[C@@H]([C@H](C)CC(=O)O)C(=O)N[C@@H](CC(=O)c2ccccc2N)C(=O)O[C@@H]1C` [Daptomycin, daptomycin, reference compound], for which the MIC in assay [2] (MHB, read-out: Minimal inhibitory concentration, MHB) came out at 0.5 µg/mL (≈ 0.309 µM); in assay [2] (human serum, read-out: Minimal inhibitory concentration, Human serum), 8 µg/mL (≈ 4.94 µM). Also, the “Fold decrease in MIC” value in assay [2] and in assay [5] was “no” throughout. For the same compound, the “reduction in bacterial burden compared to vehicle treated controls” value in the assay on MRSA strain MW2 [3] is 2-3 log10. Further, the ΣFICAVG amounted to 0.292 in the assay with MRSA strain MW2 [4] (HuS) and 0.63 in the assay on MRSA strain MW2 [4] (MHB). The ΣFICMIN in the assay on MRSA strain MW2 [4] (HuS) came out at 0.25; in the assay with MRSA strain MW2 [4] (MHB) it was 0.5. In addition, the “Minimal inhibitory concentration, MHB” value in assay [5] is 0.5 µg/mL (≈ 0.309 µM). Besides, in assay [5], the “Minimal inhibitory concentration, Human serum” value is 8 µg/mL (≈ 4.94 µM).

As for “LEAP-1: Human AMP (Hepcidin) (DTHFPICIFCCGCCHRSKCGMCCKT; ends and bridges not checked; cysteine pairing not given here; UniProt P81172 60-84, looked up) [reference compound]”, in assay [1], the ΣFICavg was determined as 0.75.

As for “Lysostaphin: lysin-like enzyme of Staphylococcus simulans with SH3-type binding domain; SEQ ID NO:7”, the “Minimal inhibitory concentration, MHB” value in assay [2] (MHB) and in assay [5] was 2 µg/mL in each case. Moreover, the “Fold decrease in MIC” value in assay [2] is 512; in assay [2] (listed as lysostaphin), 32; in assay [5] it was 512. Also, the “Minimal inhibitory concentration, Human serum” value in assay [2] (human serum) and in assay [5] was 0.0039 µg/mL throughout. For the same compound, the “difference in sterilizing activity/potency, blood compared to MHB” value in assay [6] was 100 fold. The results for the ΣFICAVG in the assay on MRSA strain MW2 [4] (HuS) and in the assay on MRSA strain MW2 [4] (MHB) were 0.13 and 0.5, respectively. In addition, the ΣFICMIN in the assay with MRSA strain MW2 [4] (HuS) stood at 0.09; in the assay with MRSA strain MW2 [4] (MHB), 0.275. Moreover, the “concentration of each agent in PlySs2 (CF-301) + lysostaphin combination sterilizing at 24 hours” value with S. aureus strain MW2 was 0.005 µg/mL.

In the case of `CN[C@H](CC(C)C)C(=O)N[C@H]1C(=O)N[C@@H](CC(N)=O)C(=O)N[C@H]2C(=O)N[C@H]3C(=O)N[C@H](C(=O)N[C@H](C(=O)O)c4cc(O)cc(O)c4-c4cc3ccc4O)[C@H](O)c3ccc(c(Cl)c3)Oc3cc2cc(c3O[C@@H]2O[C@H](CO)[C@@H](O)[C@H](O)[C@H]2O[C@H]2C[C@](C)(N)[C@H](O)[C@H](C)O2)Oc2ccc(cc2Cl)[C@H]1O` [Vancomycin, vancomycin, reference compound], the “Fold decrease in MIC” value in assay [2] and in assay [5] was “no” in each case. Moreover, the “difference in sterilizing activity/potency, blood compared to MHB” value in assay [6] is on record as “slightly decreased potency”. The ΣFICAVG in the assay on MRSA strain MW2 [4] (HuS) was found to be 0.5; with MRSA strain MW2 [4] (MHB), 0.63. In addition, the ΣFICMIN with MRSA strain MW2 [4] (HuS) is on record as 0.375; in the assay on MRSA strain MW2 [4] (MHB) it was 0.5. In addition, the “Minimal inhibitory concentration, MHB” value in assay [5] amounted to 1 µg/mL (≈ 0.69 µM). The MIC in assay [5] (read-out: Minimal inhibitory concentration, Human serum) amounted to 1 µg/mL (≈ 0.69 µM); in assay [5] (read-out: Minimal inhibitory concentration, MHB) it was 1 µg/mL (≈ 0.69 µM). In addition, the “Minimal inhibitory concentration, Human serum” value in assay [5] stood at 1 µg/mL (≈ 0.69 µM).

For the compound “LEAP-2: Human AMP (MTPFWRGVSLRPIGASCRDDSECITRLCRKRRCSLSVAQE; ends and bridges not checked; cysteine pairing not given here; UniProt Q969E1 38-77, looked up) [reference compound]”, the ΣFICavg in assay [1] is reported as 1.

Source of the values: patent US20220023399A1, “BLOOD COMPONENT POTENTIATION OF LYTIC PROTEIN ANTI-BACTERIAL ACTIVITY AND METHODS AND USES THEREOF” (priority 2017, published 2022).
